The source made the active and inactive calls. No cut-off for these calls is given here.
Tests used:
[1] = Displacement of [3H]BMB from Sprague-Dawley rat brain myelin fractions; assay type: tissue-based
Rattus norvegicus = species: Rattus norvegicus; experiment: Binding affinity to Sprague-Dawley rat brain myelin fractions at 12.5 uM after 1 hr by UV spectrophotometry
[2] = Partition coefficient, log P in 1-octanol/phosphate buffer at pH 7.40; assay type: physicochemical; details: pH 7.4
Brain [3] = experiment: Drug uptake in Swiss Webster mouse brain at 0.185 MBq, iv after 30 mins; assay type: ADME, organism-based; details: in vivo, 0.5 h
Brain [4] = experiment: Drug uptake in Swiss Webster mouse brain at 0.185 MBq, iv after 120 mins; assay type: ADME, organism-based; details: in vivo, 2 h
Brain [5] = experiment: Drug uptake in Swiss Webster mouse brain at 0.185 MBq, iv after 60 mins; assay type: ADME, organism-based; details: in vivo, 1 h

Row | SMILES | Ki [1] | Activity (Rattus norvegicus) | other results
1 | Nc1ccc(/C=C/c2ccc(I)cc2)cc1 | 494 nM |  | 
2 | CNc1ccc(/C=C/c2ccc(N)cc2)cc1 | 126 nM | Active | 
3 | CN(C)c1ccc(/C=C/c2ccc(N)cc2)cc1 | 119 nM | Active | 
4 | Nc1ccc(/C=C/c2ccc(N)cc2)cc1 | 370 nM |  | 
5 | Nc1ccc(/C=C/c2ccc([125I])cc2)cc1 |  |  | logD [2]: 2.5; Drug uptake (Brain [3]): 2.65 % ID/g; Drug uptake (Brain [4]): 1.12 % ID/g; Drug uptake (Brain [5]): 2.05 % ID/g

— ChEMBL document CHEMBL1142525, “Molecular probes for imaging myelinated white matter in CNS” (J Med Chem, 2008)
